Source: patent US9816989B2, “Immunologically active polypeptide” (Institute of Arthritis Research, LLC, priority 2013, dated 2017)

How the values were obtained:
[1] = test system: macrophage cell line (THP-1); assay: Flow cytometry binding to macrophage/monocyte cell line with or without LPS; conditions: presence or absence of LPS
E. coli = E. coli growth (CFUs) incubated with human peripheral blood leukocytes with and without PeptideX2; type: cell-based; conditions: E. coli with WBCs and PeptideX2; 10 hours; FIG. 11
Protocol: To test this hypothesis, human peripheral white cells were incubated with E. coli in the presence and absence of PeptideX2.
Human peripheral blood leukocytes (WBCs) were obtained from healthy donors with informed consent. Three test groups were inoculated with E. coli and incubated for 10 hours. The three groups were E. coli with serum alone, E. coli with WBCs, and E. coli with WBCs with PeptideX2. Samples were taken at 0, 2, 4, 6 and 10 hours and plated for colony forming units (CFUs). […] In a separate but similar experiment, nine test groups (E. coli with serum alone, E. coli with WBCs, and E. coli with WBCs with PeptideX2 at each of seven indicated concentrations, see FIG. 12) were incubated over a time course of three hours, with quantification of bacterial CFU performed at times 0, 1.5 and 3 hours (FIG. 12).

peripheral blood cells = assay: Cytokine production by human peripheral blood cells in culture (MSD panel); type: cell-based
Protocol: In order to examine the biological activity of IgX, cytokine production from human peripheral whole blood samples incubated with IgX was measured. Peripheral whole blood samples from three different donors (#66, 67, and 85) were obtained with appropriate informed consent and incubated with concentrations of IgX ranging from 0 to 200 ug/ml.
Protein A purified IgX was prepared from placental sample BC, brought to 0.05 M phosphate, 0.15 M NaCl buffer, pH 7.4, treated with an endotoxin affinity column (ActiClean Etox™ from Sterogene, Carlsbad, Calif.) according to the supplier's instructions, and then sent to IBT Bioservices (Gaithersburg, Md.) for human peripheral blood testing. […] All peripheral blood cells were suspended in RPMI-1640 media. Various concentrations of IgX were incubated with peripheral blood cells from donor D66 for 18 hours, and then the samples were stimulated with 1 ug/ml of PHA, 50 ng/ml of LPS, or 10 ng/ml of IFNγ (200 U/ml) for four hours. Samples of culture supernatant fluids were tested in duplicate for the presence of IL-2, IL-4, IL-6, IL-10, IL-12, and TNFα using a Meso Scale Discovery (MSD, Gaithersburg, Md.) panel.
PeptideX1 and PeptideX2 were incubated with peripheral blood cells from donor D67 as described above and tested in duplicate for IL-6 activity. […]

## KSIAYLQMNSLK (Peptide fragment) [PeptideX2]
[1]
  binding to monocyte cell line: without any binding
E. coli
  E. coli CFUs: rapid rise in CFUs
Peripheral blood cells; cells from donor #67, FIG. 7
  IL-6 production compared to peptideX1: significantly greater
Peripheral blood cells; cells from donor #85, PeptideX2 0-200 ug/ml, FIG. 9
  IL-6 production: enhanced production
